According to patent publication US5198445A, “Composition and use of substituted 3-thio-2-propynenitriles as industrial antimicrobials” (The Dow Chemical Company, priority 1992, dated 1993):
≈ marks a conversion by molar mass, not a printed value. Read-outs that look alike come from different tables or passages of the source.

Legend:
Bacillus subtilis (Bs) = experiment: MIC in nutrient agar, Bacillus subtilis; assay type: cell-based, Bacillus subtilis ATCC 8473; conditions: Bacillus subtilis
Experimental: (§1) The minimum inhibitory concentration (MIC) for the compounds listed in Table I is determined for 9 bacteria, using nutrient agar, and 7 yeast and fungi, using malt yeast agar. A one percent solution of the test compound is prepared in a mixture of acetone and water. Nutrient agar is prepared at pH 6.8, representing a neutral medium, and at pH 8.2, representing an alkaline medium. The nutrient agars are prepared by adding 23 g of nutrient agar to one-liter of deionized water. In addition, the alkaline medium is prepared by adjusting a 0.04M solution of N-[tris-(hydroxymethyl)methyl]-glycine buffered deionized water with concentrated sodium hydroxide to a pH of […]. Malt yeast agar is prepared by adding 3 g yeast extract and 45 g malt agar per liter of deionized water. The specific agar is dispensed in 30 ml aliquots into 25×200 mm test tubes, capped and autoclaved for 15 minutes at 115° C. The test tubes containing the agar are cooled in a water bath until the temperature of the agar is 48° C. Then, an appropriate amount of the one percent solution of the test compound is added (except in the controls where no compound is added) to the respective test tubes so that the final concentrations are 500, 250, 100, 50, 25, 10, 5, 2.5, 1.0 and zero parts per million of the test compound in the agar, thus having a known concentration of test compound dispersed therein. The contents of the test tubes are then transferred to respective petri plates. After drying for 24 hours, the petri plates containing nutrient agar are inoculated with bacteria and those containing malt yeast agar are inoculated with yeast and fungi.
(§2) The inoculation with bacteria is accomplished by using the following procedure. Twenty-four hour-cultures of each of the bacteria are prepared by incubating the respective bacteria in tubes containing nutrient broth for 24 hours at 30° C. in a shaker. Dilutions of each of the 24 hour-cultures are made so that nine separate suspensions (one for each of the nine test bacteria) are made, each containing 10^8 colony forming units (CFU) per ml of suspension of a particular bacteria. Aliquots of 0.3 ml of each of the bacterial suspensions are used to fill the individual wells of Steer's Replicator. For each microbial suspension, 0.3 ml was used to fill three wells (i.e., three wells of 0.3 ml each) so that for the nine different bacteria, 27 wells are filled. The Steer's Replicator is then used to inoculate both the neutral and alkaline pH nutrient agar petri plates.
(§3) The inoculated petri plates are incubated at 30° C. for 48 hours and then read to determine if the test compound which is incorporated into the agar prevented growth of the respective bacteria.
(§4) Table II lists the bacteria, yeast and fungi used in the MIC test described above along with their respective American Type Culture Collection (ATCC) identification numbers.
(§5) The following MIC and MEC antimicrobial tests, whose results are shown in Tables XIII-XVII, are performed using the same methods as described hereinabove.

Candida albicans (Ca) = experiment: MIC in malt yeast agar, Candida albicans; assay type: cell-based, Candida albicans ATCC 10231; conditions: read-out: Minimum Inhibitory Concentration, Ca
Experimental: as §1
(§6) The inoculation with the yeast and fungi is accomplished as follows. Cultures of yeast and fungi are incubated for seven days on malt yeast agar at 30° C. These cultures are used to prepare suspensions by the following procedure. A suspension of each organism is prepared by adding 10 ml of sterile saline and 10 microliters of octylphenoxy polyethoxy ethanol (TRITON® X-100, a trademark of Rohm & Haas Company) to the agar slant of yeast or fungi. The sterile saline/octylphenoxy polyethoxy ethanol solution is then agitated with a sterile swab to suspend the microorganism grown on the slant. Each resulting suspension is diluted into sterile saline (1 part suspension: 9 parts sterile saline). Aliquots of these dilutions are placed in individual wells of Steer's Replicator and petri plates inoculated as previously described. The petri plates are incubated at 30° C. and read after 48 hours for yeast and 72 hours for fungi.
as §4, §5

Trichoderma viride (Tv) = experiment: MIC in malt yeast agar, Trichoderma viride; assay type: cell-based, Trichoderma viride ATCC 8678; conditions: read-out: Minimum Inhibitory Concentration, Tv
Experimental: as §1, §6, §4, §5

[1] = tested on: Pseudomonas aeruginosa (PRD-10); experiment: MIC in nutrient agar, Pseudomonas aeruginosa PRD-10; assay type: cell-based, Pseudomonas aeruginosa ATCC 15442; conditions: Pseudomonas aeruginosa
Experimental: as §1, §2, §3, §4, §5

Aspergillus niger (An) = experiment: MIC in malt yeast agar, Aspergillus niger; assay type: cell-based, Aspergillus niger ATCC 16404; conditions: read-out: Minimum Inhibitory Concentration, An
Experimental: as §1, §6, §4, §5

[2] = tested on: Aureobasidium pullulan (Ap); experiment: MIC in malt yeast agar, Aureobasidium pullulan; assay type: cell-based, Aureobasidium pullulan ATCC 16622; conditions: read-out: Minimum Inhibitory Concentration, Ap
Experimental: as §1, §6, §4, §5

[3] = tested on: Staphylococcus aureus (Sa); experiment: MIC in nutrient agar, Staphylococcus aureus; assay type: cell-based, Staphylococcus aureus ATCC 6538; conditions: Staphylococcus aureus
Experimental: as §1, §2, §3, §4, §5

[4] = tested on: Salmonella choleraesuis (Sc); experiment: MIC in nutrient agar, Salmonella choleraesuis; assay type: cell-based, Salmonella choleraesuis ATCC 10708; conditions: Salmonella enterica, CHOLERAESUIS
Experimental: as §1, §2, §3, §4, §5

[5] = Degradation of Z isomer to 3-methylthio-2-propynenitrile; assay type: physicochemical
Source text: It has also been discovered that the Z isomer of an appropriately-substituted 2-chloro-3-thio-2-propenenitrile precursor may degrade in situ to a like-substituted 3-thio-2-propynenitrile.

[6] = tested on: Klebsiella pneumoniae (Kp); experiment: MIC in nutrient agar, Klebsiella pneumoniae; assay type: cell-based, Klebsiella pneumoniae ATCC 8308
Experimental: as §1, §2, §3, §4, §5

[7] = tested on: Saccharomyces cerevisiae (Sc); experiment: MIC in malt yeast agar, Saccharomyces cerevisiae; assay type: cell-based, Saccharomyces cerevisiae ATCC 4105; conditions: read-out: Minimum Inhibitory Concentration, Sc
Experimental: as §1, §6, §4, §5

[8] = tested on: Pseudomonas aeruginosa (Pa); experiment: MIC in nutrient agar, Pseudomonas aeruginosa; assay type: cell-based, Pseudomonas aeruginosa ATCC 10145
Experimental: as §1, §2, §3, §4, §5

Proteus vulgaris (Pv) = experiment: MIC in nutrient agar, Proteus vulgaris; assay type: cell-based, Proteus vulgaris ATCC 881
Experimental: as §1, §2, §3, §4, §5

[9] = tested on: Enterobacter aerogenes (Ea); experiment: MIC in nutrient agar, Enterobacter aerogenes; assay type: cell-based, Enterobacter aerogenes ATCC 13048; conditions: Klebsiella aerogenes
Experimental: as §1, §2, §3, §4, §5

[10] = tested on: Penicillium chrysogenum (Pc); experiment: MIC in malt yeast agar, Penicillium chrysogenum; assay type: cell-based, Penicillium chrysogenum ATCC 9480; conditions: read-out: Minimum Inhibitory Concentration, Pc
Experimental: as §1, §6, §4, §5

Fusarium oxysporum (Fo) = experiment: MIC in malt yeast agar, Fusarium oxysporum; assay type: cell-based, Fusarium oxysporum ATCC 48112; conditions: read-out: Minimum Inhibitory Concentration, Fo
Experimental: as §1, §6, §4, §5

Escherichia coli (Ec) = experiment: MIC in nutrient agar, Escherichia coli; assay type: cell-based, Escherichia coli ATCC 11229; conditions: Escherichia coli
Experimental: as §1, §2, §3, §4, §5

Bacteria Species = experiment: MIC test in bacteria species, comparison over the organisms of Table XIV; assay type: cell-based, bacteria listed in Table II; conditions: pH 8.2
Experimental: The minimum inhibitory concentration (MIC) for the compounds listed in Table I is determined for 9 bacteria, using nutrient agar, and 7 yeast and fungi, using malt yeast agar. A one percent solution of the test compound is prepared in a mixture of acetone and water. Nutrient agar is prepared at pH 6.8, representing a neutral medium, and at pH 8.2, representing an alkaline medium. The nutrient agars are prepared by adding 23 g of nutrient agar to one-liter of deionized water. In addition, the alkaline medium is prepared by adjusting a 0.04M solution of N-[tris-(hydroxymethyl)methyl]-glycine buffered deionized water with concentrated sodium hydroxide to a pH of […]. Malt yeast agar is prepared by adding 3 g yeast extract and 45 g malt agar per liter of deionized water. The specific agar is dispensed in 30 ml aliquots into 25×200 mm test tubes, capped and autoclaved for 15 minutes at 115° C. The test tubes containing the agar are cooled in a water bath until the temperature of the agar is 48° C. […]
The inoculated petri plates are incubated at 30° C. for 48 hours and then read to determine if the test compound which is incorporated into the agar prevented growth of the respective bacteria. […]

## CS/C=C(\Cl)C#N [Compound I, Z isomer of 2-chloro-3-(methylthio)-2-propenenitrile]
Bacillus subtilis (Bs); pH 6.8, read-out: Minimum Inhibitory Concentration, Bs
  MIC: 50 µg/mL (≈ 374 µM)
Bacillus subtilis (Bs); pH 8.2, read-out: Minimum Inhibitory Concentration, Bs
  MIC: 10 µg/mL (≈ 74.8 µM)
Candida albicans (Ca)
  MIC: 100 µg/mL (≈ 748 µM)
Trichoderma viride (Tv)
  MIC: 50 µg/mL (≈ 374 µM)
[1]; pH 6.8, read-out: Minimum Inhibitory Concentration, PRD
  MIC: 50 µg/mL (≈ 374 µM)
[1]; pH 8.2, read-out: Minimum Inhibitory Concentration, PRD
  MIC: 10 µg/mL (≈ 74.8 µM)
Aspergillus niger (An)
  MIC: 50 µg/mL (≈ 374 µM)
[2]
  MIC: 50 µg/mL (≈ 374 µM)
[3]; pH 6.8, read-out: Minimum Inhibitory Concentration, Sa
  MIC: 50 µg/mL (≈ 374 µM)
[3]; pH 8.2, read-out: Minimum Inhibitory Concentration, Sa
  MIC: 10 µg/mL (≈ 74.8 µM)
[4]; pH 6.8, read-out: Minimum Inhibitory Concentration, Sc
  MIC: 50 µg/mL (≈ 374 µM)
[4]; pH 8.2, read-out: Minimum Inhibitory Concentration, Sc
  MIC: 10 µg/mL (≈ 74.8 µM)
[5]; pH 7
  half-life for the degradation of the Z isomer to 3-methylthio-2-propynenitrile: approximately two
[5]; pH 9
  half-life for the degradation of the Z isomer to 3-methylthio-2-propynenitrile: approximately two
[6]; pH 6.8, read-out: Minimum Inhibitory Concentration, Kp
  MIC: 50 µg/mL (≈ 374 µM)
[6]; pH 8.2, read-out: Minimum Inhibitory Concentration, Kp
  MIC: 10 µg/mL (≈ 74.8 µM)
[7]
  MIC: 100 µg/mL (≈ 748 µM)
[8]; pH 6.8, read-out: Minimum Inhibitory Concentration, Pa
  MIC: 50 µg/mL (≈ 374 µM)
[8]; pH 8.2, read-out: Minimum Inhibitory Concentration, Pa
  MIC: 10 µg/mL (≈ 74.8 µM)
Proteus vulgaris (Pv); pH 6.8, read-out: Minimum Inhibitory Concentration, Pv
  MIC: 50 µg/mL (≈ 374 µM)
Proteus vulgaris (Pv); pH 8.2, read-out: Minimum Inhibitory Concentration, Pv
  MIC: 5 µg/mL (≈ 37.4 µM)
[9]; pH 6.8, read-out: Minimum Inhibitory Concentration, Ea
  MIC: 50 µg/mL (≈ 374 µM)
[9]; pH 8.2, read-out: Minimum Inhibitory Concentration, Ea
  MIC: 10 µg/mL (≈ 74.8 µM)
[10]
  MIC: 50 µg/mL (≈ 374 µM)
Fusarium oxysporum (Fo)
  MIC: 100 µg/mL (≈ 748 µM)
Escherichia coli (Ec); pH 6.8, read-out: Minimum Inhibitory Concentration, Ec
  MIC: 50 µg/mL (≈ 374 µM)
Escherichia coli (Ec); pH 8.2, read-out: Minimum Inhibitory Concentration, Ec
  MIC: 10 µg/mL (≈ 74.8 µM)
Bacteria Species
  antimicrobial activity compared with 3-methylthio-2-propynenitrile (Compound A): essentially equivalent
  antimicrobial activity relative to the E isomer (Compound H): 25-50 times greater
